This is an account of results in PMC5462828 (Scientific Reports, 2017).

Where two headings read alike, the source gives them in different places.

The experiment concerns the target T1, RXFP1 (Homo sapiens, UniProt Q9HBX9).
T1 sequence (Q9HBX9 1-757): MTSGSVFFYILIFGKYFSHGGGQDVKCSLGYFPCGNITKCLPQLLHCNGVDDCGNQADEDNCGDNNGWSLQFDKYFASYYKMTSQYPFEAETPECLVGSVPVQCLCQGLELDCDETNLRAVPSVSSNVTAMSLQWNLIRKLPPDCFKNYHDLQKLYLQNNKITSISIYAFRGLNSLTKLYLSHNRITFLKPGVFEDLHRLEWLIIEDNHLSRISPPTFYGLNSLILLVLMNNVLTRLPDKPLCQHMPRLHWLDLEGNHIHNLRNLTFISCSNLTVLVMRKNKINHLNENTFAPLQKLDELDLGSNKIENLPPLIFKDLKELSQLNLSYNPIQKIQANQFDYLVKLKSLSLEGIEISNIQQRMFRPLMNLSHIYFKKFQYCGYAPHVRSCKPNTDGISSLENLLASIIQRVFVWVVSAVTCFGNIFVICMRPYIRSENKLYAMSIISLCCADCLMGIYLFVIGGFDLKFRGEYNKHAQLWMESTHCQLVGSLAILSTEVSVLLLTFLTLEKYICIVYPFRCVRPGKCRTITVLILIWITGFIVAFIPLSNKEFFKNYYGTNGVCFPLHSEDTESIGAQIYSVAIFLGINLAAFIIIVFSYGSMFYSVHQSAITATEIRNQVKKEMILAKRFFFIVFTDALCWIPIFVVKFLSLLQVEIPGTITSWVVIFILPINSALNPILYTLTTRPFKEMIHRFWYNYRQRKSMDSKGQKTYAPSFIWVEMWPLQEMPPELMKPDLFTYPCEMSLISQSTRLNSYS
As to the kind of experiment: p38MAPK phosphorylation (Surefire) in human primary vascular cells. Format: cell-based. Set-up: In human primary vascular endothelial and smooth muscle cells that endogenously express RXFP1. To be noted: 15 min. Here is the method: p-ERK1/2, p-p38MAPK and p-JNK1/2 was measured using the Surefire ERK, p38 and JNK kits (TGR BioSciences, Australia) as described previously, [16]. Briefly, HEK-RXFP1 cells were plated into 96-well plates (5 × 10^4 cells/well) and primary cells grown in 24-well plates (1 × 10^5 cells/well) overnight to achieve a confluent monolayer. Prior to stimulation, HEK293 cells were serum-starved with DMEM containing 0.5% (v/v) FBS and primary cells in M199 medium for 4–6 hours. […] Levels of p-ERK1/2, p-p38MAPK and p-JNK1/2/3 were detected as per manufacturer’s instructions (Perkin-Elmer, Australia).

For the compound `CC(C)Oc1ccccc1C(=O)Nc1ccccc1C(=O)Nc1cccc(S(=O)(=O)C(F)(F)F)c1` [ML290, 2-Isopropoxy-N-(2-(3-(trifluoromethylsulfonyl)phenylcarbamoyl)phenyl) benzamide], the Emax – broadly, the greatest response seen or fitted, relative to the assay's reference – (read-out: p-p38MAPK efficacy (Emax), HUASMC) is 4.4% and the Emax (read-out: p-p38MAPK efficacy (Emax), HUVSMC) is 2.7%.
